{"source": "paper PMC11054271", "about": "“ABCG2 Transports the Flukicide Nitroxynil and Affects Its Biodistribution and Secretion into Milk” (Pharmaceutics, 2024)", "origin": "cited, not measured here", "tested_on": "Abcg2", "parameters": "method as in PMID 34062171", "details": "mice; cited from earlier work"}
{"compound": "Cc1c(Cl)cccc1Nc1ccccc1C(=O)O", "note": "[tolfenamic acid]", "values": [{"measurement": "Testis accumulation, fold higher in Abcg2−/− compared to wild-type", "result": "~3", "unit": "fold"}]}
